# Results: patent US20250049860A1, “METHOD FOR ISOLATING, MAINTAINING, PROLIFERATING, AND DIFFERENTIATING MONOCLONAL CELLS DERIVED FROM HUMAN SALIVARY GLAND EPITHELIAL STEM CELLS OR PROGENITOR CELLS AND PRODUCTION METHOD FOR EXTRACELLULAR VESICLES FOR TREATING SALIVARY GLAND DISEASES” (INDUSTRY-ACADEMIC COOPERATION FOUNDATION, YONSEI UNIVERSITY, priority 2021, published 2025)
# B1: WNT: growth factor WNT3A, Recombinant Human Wnt-3a Protein (protein, UniProt P56704 19-352, looked up)
# Protein Wnt-3a: SYPIWWSLAVGPQYSSLGSQPILCASIPGLVPKQLRFCRNYVEIMPSVAEGIKIGIQECQHQFRGRRWNCTTVHDSLAIFGPVLDKATRESAFVHAIASAGVAFAVTRSCAEGTAAICGCSSRHQGSPGKGWKWGGCSEDIEFGGMVSREFADARENRPDARSAMNRHNNEAGRQAIASHMHLKCKCHGLSGSCEVKTCWWSQPDFRAIGDFLKDKYDSASEMVVEKHRESRGWVETLRPRYTYFKVPTERDLVYYEASPNFCEPNPETGSFGTRDRTCNVSSHGIDGCDLLCCGRGHNARAERRREKCRCVFHWCCYVSCQECTRVYDVHTCK
# How the values were obtained:
# Assay type in all cases: cell-based
# [1] = tested on: human salivary gland epithelial cells; assay: Small molecule compound combination check in K-SFM; details: for result of addition to the culture: various combinations of small molecule compounds
# Text: Isoproterenol had no effect.
# [2] = tested on: human salivary gland epithelial cells; assay: Concentration screening of small molecule compounds and their combination in Dermacult (KEM); details: added in combination to KEM (Dermacult)
# Method: Dermacult, which can stably culture human salivary gland epithelial cells in CDM, was used as the epithelial cell culture medium (keratinocyte expansion medium, KEM), and the small molecule compounds ROCK I/II inhibitor (Y-27632), TGF-beta pathway inhibitor (A83-01), and BMP pathway inhibitor (LDN193189) were added to determine the optimal concentrations at which cell characteristics were maintained and stable long-term culture was achieved, respectively (FIG. 3).
# Finally, the combination experiments with different concentrations of the small molecule compounds confirmed that salivary gland epithelial cell growth was best maintained when Y-27632 10 μM, A83-01 1 μM, and LDN193189 0.1 μM were added to KEM (FIG. 4).
# [3] = tested on: human salivary gland epithelial cells; assay: Addition of WNT during cell separation with initial SCM in K-SFM
# Method: • (1) The cells were homogenized in 10 ml culture medium, spread evenly onto a 100×20 mm culture dish, and then incubated in an incubator at 37° C. and 5% CO2. In this case, the composition of each culture medium is as shown in Table 1. • (2) To perform the subfractionation culturing method (SCM) to isolate epithelial monoclonal cells, after 2 hours, the culture medium containing the cells was transferred to a new 100×20 mm culture dish. This procedure was repeated two more times. • (3) After 24 hours, the dish resulting from (2) was cultured, and the existing culture medium was removed every 2-3 days and replaced it with fresh culture medium. • (4) After confirming the formation of colonies, when the size of a cell cluster forming one colony exceeded 1 cm^2, the culture medium was removed, the cluster was marked with a hydrophobic pen, and the residual culture medium was removed using 1×PBS. 50 to 100 μL of TrypLE+Y27632 was added, and the cells were stored in an incubator at 37° C. and 5% CO2 environment for 15 minutes. • (5) Each cell population detached from the dish by TrypLE was added to a separate 1.5 ml tube, and 1 ml of culture medium was added. • (6) After centrifugation at 300 g for 5 minutes at 4° C., the supernatant was removed, and the cells were homogenized and spread in 250 μL of fresh culture medium into each well of a 48-well plate for each cell population. […]
molecule,measurement,setting,value
Cc1cccc(-c2nn(C(=S)Nc3ccccc3)cc2-c2ccnc3ccccc23)n1 [A83-01],result of addition to the culture,[1],universally good results
same,concentration at which salivary gland epithelial cell growth was best maintained,[2],1 µM
Cc1c[nH]c(-c2cnc(NCCNc3ccc(C#N)cn3)nc2-c2ccc(Cl)cc2Cl)n1 [Chir99021],result of addition to the culture,[1],poor results
CC(C)Oc1ccc(-c2cnc3c(-c4ccnc5ccccc45)cnn3c2)cc1 [DMH-1],concentration giving effects similar to Dermacult's YAL,[1]; LDN193189 replaced with DMH-1,1 µM
CC(C)NCC(O)c1ccc(O)c(O)c1 (centres unmarked) [Isoproterenol],result of addition to the culture,[1],no effect
c1ccc2c(-c3cnn4cc(-c5ccc(N6CCNCC6)cc5)cnc34)ccnc2c1 [LDN193189],concentration at which salivary gland epithelial cell growth was best maintained,[2],0.1 µM
O=C(NOC[C@H](O)CO)c1ccc(F)c(F)c1Nc1ccc(I)cc1F [PD0325901],result of addition to the culture,[1],poor results
C[C@@H](N)[C@H]1CC[C@H](C(=O)Nc2ccncc2)CC1 [Y-27632],result of addition to the culture,[1],universally good results
same,concentration at which salivary gland epithelial cell growth was best maintained,[2],10 µM
B1,effect on cell growth,[3]; initial addition,rapid cell growth
same,effect on cell morphology,[3]; prolonged addition,changed the morphology of the cells
